According to PubChem BioAssay (NCI):
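Tested at 5 concentrations; 48 h exposure; 96-well plates; endpoints linearly interpolated, else capped at highest concentration. TGI: concentration producing complete growth inhibition.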

Columns and labels:
Experiment in all cases: growth of human tumour cells (NCI), 48 h
[1] = system: MOLT-4 leukemia
[2] = system: DU-145 prostate
[3] = system: OVCAR-4 ovarian
[4] = system: K-562 leukemia
[5] = system: EKVX NSCLC
[6] = system: OVCAR-3 ovarian
[7] = system: NCI-H23 lung
[8] = system: RXF 393 renal
[9] = system: 786-0 renal
[10] = system: UACC-62 melanoma
[11] = system: U251 CNS
[12] = system: NCI-H522 lung
[13] = system: COLO 205 colon
[14] = system: MDA-N
[15] = system: UO-31 renal
[16] = system: PC-3 prostate
[17] = system: SNB-19 CNS
[18] = system: TK-10 renal
[19] = system: SW-620 colon
[20] = system: SF-295 CNS
[21] = system: ACHN renal
[22] = system: HS 578T breast
[23] = system: HCT-15 colon
[24] = system: SK-MEL-5 melanoma
[25] = system: UACC-257 melanoma
[26] = system: SN12C renal
[27] = system: T-47D breast
[28] = system: NCI-H226 lung
[29] = system: MDA-MB-231 breast
[30] = system: A549 NSCLC
[31] = system: M14 melanoma
[32] = system: MDA-MB-435
[33] = system: HCT-116 colon
[34] = system: HL-60(TB) leukemia
[35] = system: CCRF-CEM leukemia
[36] = system: OVCAR-5 ovarian
[37] = system: CAKI-1 renal
[38] = system: SK-MEL-2 melanoma
[39] = system: HT29 colon
[40] = system: LOX IMVI melanoma
[41] = system: BT-549 breast
[42] = system: NCI-H460 lung
[43] = system: NCI/ADR-RES ovarian
[44] = system: OVCAR-8 ovarian
[45] = system: HOP-62 NSCLC
[46] = system: HOP-92 NSCLC
[47] = system: SK-OV-3 ovarian
[48] = system: MCF7 breast
[49] = system: SK-MEL-28 melanoma
[50] = system: KM12 colon
[51] = system: IGROV1 ovarian
[52] = system: A498 renal
[53] = system: HCC-2998 colon
[54] = system: SF-268 CNS
[55] = system: SNB-75 CNS
[56] = system: RPMI-8226 leukemia
[57] = system: MALME-3M melanoma

O=c1[nH]c2c(C(F)(F)F)c(Cl)c(-c3ccccc3)nc2o1
TGI [1]: 32.5 µM | TGI [2]: > 100 µM | TGI [3]: 69.5 µM | TGI [4]: 84.3 µM | TGI [5]: 41.6 µM | TGI [6]: 65.8 µM | TGI [7]: 52.1 µM | TGI [8]: 75.3 µM | TGI [9]: > 100 µM | TGI [10]: > 100 µM | TGI [11]: 85.6 µM | TGI [12]: > 100 µM | TGI [13]: 28.1 µM | TGI [14]: 44.8 µM | TGI [15]: > 100 µM | TGI [16]: 76.2 µM | TGI [17]: > 100 µM | TGI [18]: > 100 µM | TGI [19]: > 100 µM | TGI [20]: > 100 µM | TGI [21]: > 100 µM | TGI [22]: > 100 µM | TGI [23]: > 100 µM | TGI [24]: > 100 µM | TGI [25]: 59.9 µM | TGI [26]: 32.4 µM | TGI [27]: 90.9 µM | TGI [28]: > 100 µM | TGI [29]: 65.2 µM | TGI [30]: > 100 µM | TGI [31]: > 100 µM | TGI [32]: > 100 µM | TGI [33]: 38.4 µM | TGI [34]: 13.7 µM | TGI [35]: 34 µM | TGI [36]: 58.2 µM | TGI [37]: > 100 µM | TGI [38]: 52.7 µM | TGI [39]: 51.6 µM | TGI [40]: > 100 µM | TGI [41]: 60.3 µM | TGI [42]: 69.8 µM | TGI [43]: 67.2 µM | TGI [44]: > 100 µM | TGI [45]: > 100 µM | TGI [46]: 75.7 µM | TGI [47]: 64.7 µM | TGI [48]: > 100 µM | TGI [49]: > 100 µM | TGI [50]: > 100 µM | TGI [51]: > 100 µM | TGI [52]: > 100 µM | TGI [53]: > 100 µM | TGI [54]: > 100 µM

CCOC(=O)c1ccc(-c2onc(C)c2Br)[nH]1
TGI [1]: > 100 µM | TGI [2]: > 100 µM | TGI [3]: > 100 µM | TGI [55]: > 100 µM | TGI [4]: > 100 µM | TGI [5]: > 100 µM | TGI [6]: > 100 µM | TGI [7]: > 100 µM | TGI [8]: 96.1 µM | TGI [9]: > 100 µM | TGI [10]: > 100 µM | TGI [11]: > 100 µM | TGI [12]: > 100 µM | TGI [13]: > 100 µM | TGI [14]: > 100 µM | TGI [15]: > 100 µM | TGI [16]: > 100 µM | TGI [17]: > 100 µM | TGI [18]: > 100 µM | TGI [19]: > 100 µM | TGI [20]: > 100 µM | TGI [21]: > 100 µM | TGI [22]: > 100 µM | TGI [23]: > 100 µM | TGI [24]: > 100 µM | TGI [25]: > 100 µM | TGI [27]: > 100 µM | TGI [29]: > 100 µM | TGI [30]: > 100 µM | TGI [31]: > 100 µM | TGI [32]: > 100 µM | TGI [33]: > 100 µM | TGI [36]: > 100 µM | TGI [37]: > 100 µM | TGI [38]: > 100 µM | TGI [39]: > 100 µM | TGI [41]: > 100 µM | TGI [42]: > 100 µM | TGI [43]: > 100 µM | TGI [44]: > 100 µM | TGI [45]: > 100 µM | TGI [46]: 92 µM | TGI [47]: > 100 µM | TGI [48]: > 100 µM | TGI [49]: > 100 µM | TGI [56]: > 100 µM | TGI [50]: > 100 µM | TGI [51]: > 100 µM | TGI [52]: > 100 µM | TGI [57]: > 100 µM | TGI [53]: > 100 µM | TGI [54]: > 100 µM
